PubChem BioAssay AID256 (DTP/NCI, 2004)
“And” between values parts separate entries of the source, which are not always exact repeats. Equal entries are not always repeated. Toxic doses and inconclusive results are not listed.

System: CD2F1 mice, L1210 leukemia ip, survival T/C
Experiment: NCI In Vivo Anticancer Drug Screen. Data for tumor model L1210 Leukemia (intraperitoneal) in CD2F1 (CDF1) mice
Settings: endpoint: median survival time, higher = longer survival
How it was run: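 Ratio T/C, where T is the treated-group value and C the vehicle-dosed control value, from mice implanted with a transplantable tumor.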

COc1cc([C@@H]2c3cc4c(cc3[C@@H](OC3OC5COC(C)OC5C(O)C3O)[C@H]3COC(=O)[C@H]23)OCO4)cc(OC)c1O (stereo partly drawn)
T/C (dose: 16.0 mg/kg/injection, schedule: Q04DX003 (ip), vehicle: other): 212 % of control | T/C (dose: 16.0 mg/kg/injection, schedule: Q08DX002 (ip), vehicle: other): 200 % of control | T/C (dose: 32.0 mg/kg/injection, schedule: Q01DX001 (ip), vehicle: other): 162 % of control | T/C (dose: 32.0 mg/kg/injection, schedule: Q01DX001 (oral), vehicle: Klucel (hydroxypropylcellulose) (HPC)): 105 % of control | T/C (dose: 32.0 mg/kg/injection, schedule: Q01DX001 (sc), vehicle: other): 150 % of control | T/C (dose: 32.0 mg/kg/injection, schedule: Q01DX009 (ip), vehicle: other): 87 % of control | T/C (dose: 32.0 mg/kg/injection, schedule: Q01DX009 (ip), vehicle: saline): 110 % of control | T/C (dose: 32.0 mg/kg/injection, schedule: Q01DX009 (oral), vehicle: Klucel (hydroxypropylcellulose) (HPC)): 122 % of control | T/C (dose: 32.0 mg/kg/injection, schedule: Q01DX009 (sc), vehicle: other): 87 % of control | T/C (dose: 32.0 mg/kg/injection, schedule: Q03HX008 (oral), vehicle: Klucel (hydroxypropylcellulose) (HPC)): 122 % of control | T/C (dose: 32.0 mg/kg/injection, schedule: Q03HX016 (oral), vehicle: Klucel (hydroxypropylcellulose) (HPC)): 116 % of control | T/C (dose: 32.0 mg/kg/injection, schedule: Q04DX003 (ip), vehicle: other): 206 % of control | T/C (dose: 32.0 mg/kg/injection, schedule: Q04DX003 (oral), vehicle: Klucel (hydroxypropylcellulose) (HPC)): 105 % of control | T/C (dose: 32.0 mg/kg/injection, schedule: Q08DX002 (ip), vehicle: other): 200 % of control | T/C (dose: 32.0 mg/kg/injection, schedule: Q08DX002 (oral), vehicle: Klucel (hydroxypropylcellulose) (HPC)): 111 % of control | T/C (dose: 64.0 mg/kg/injection, schedule: Q01DX001 (ip), vehicle: other): 218 % of control | T/C (dose: 64.0 mg/kg/injection, schedule: Q01DX001 (oral), vehicle: Klucel (hydroxypropylcellulose) (HPC)): 111 % of control | T/C (dose: 64.0 mg/kg/injection, schedule: Q01DX001 (sc), vehicle: other): 187 % of control | T/C (dose: 64.0 mg/kg/injection, schedule: Q01DX009 (ip), vehicle: saline): 102 % of control | T/C (dose: 64.0 mg/kg/injection, schedule: Q01DX009 (oral), vehicle: other): 162 % of control | T/C (dose: 64.0 mg/kg/injection, schedule: Q03HX008 (oral), vehicle: Klucel (hydroxypropylcellulose) (HPC)): 116 % of control | T/C (dose: 64.0 mg/kg/injection, schedule: Q03HX024 (oral), vehicle: Klucel (hydroxypropylcellulose) (HPC)): 94 % of control | T/C (dose: 64.0 mg/kg/injection, schedule: Q04DX003 (ip), vehicle: other): 156 % of control | T/C (dose: 64.0 mg/kg/injection, schedule: Q04DX003 (oral), vehicle: Klucel (hydroxypropylcellulose) (HPC)): 122 % of control | T/C (dose: 64.0 mg/kg/injection, schedule: Q08DX002 (ip), vehicle: other): 212 % of control | T/C (dose: 64.0 mg/kg/injection, schedule: Q08DX002 (oral), vehicle: Klucel (hydroxypropylcellulose) (HPC)): 111 % of control | T/C (dose: 128.0 mg/kg/injection, schedule: Q01DX001 (ip), vehicle: other): 112 % of control | T/C (dose: 128.0 mg/kg/injection, schedule: Q01DX001 (oral), vehicle: Klucel (hydroxypropylcellulose) (HPC)): 111 % of control | T/C (dose: 128.0 mg/kg/injection, schedule: Q01DX001 (sc), vehicle: other): 87 % of control | T/C (dose: 128.0 mg/kg/injection, schedule: Q03HX008 (oral), vehicle: Klucel (hydroxypropylcellulose) (HPC)): 122 % of control | T/C (dose: 128.0 mg/kg/injection, schedule: Q03HX016 (oral), vehicle: Klucel (hydroxypropylcellulose) (HPC)): 150 % of control | T/C (dose: 128.0 mg/kg/injection, schedule: Q04DX003 (ip), vehicle: other): 118 % of control | T/C (dose: 128.0 mg/kg/injection, schedule: Q04DX003 (oral), vehicle: Klucel (hydroxypropylcellulose) (HPC)): 116 % of control | T/C (dose: 128.0 mg/kg/injection, schedule: Q08DX002 (ip), vehicle: other): 175 % of control | T/C (dose: 128.0 mg/kg/injection, schedule: Q08DX002 (oral), vehicle: Klucel (hydroxypropylcellulose) (HPC)): 111 % of control | T/C (dose: 256.0 mg/kg/injection, schedule: Q01DX001 (oral), vehicle: Klucel (hydroxypropylcellulose) (HPC)): 122 % of control | T/C (dose: 256.0 mg/kg/injection, schedule: Q01DX001 (oral), vehicle: other): 118 % of control and 112 % of control | T/C (dose: 256.0 mg/kg/injection, schedule: Q01DX001 (sc), vehicle: other): 87 % of control | T/C (dose: 256.0 mg/kg/injection, schedule: Q04DX003 (oral), vehicle: Klucel (hydroxypropylcellulose) (HPC)): 122 % of control | T/C (dose: 256.0 mg/kg/injection, schedule: Q08DX002 (oral), vehicle: Klucel (hydroxypropylcellulose) (HPC)): 111 % of control | T/C (dose: 512.0 mg/kg/injection, schedule: Q01DX001 (oral), vehicle: Klucel (hydroxypropylcellulose) (HPC)): 122 % of control | T/C (dose: 512.0 mg/kg/injection, schedule: Q01DX001 (oral), vehicle: other): 150 % of control | T/C (dose: 512.0 mg/kg/injection, schedule: Q01DX009 (oral), vehicle: other): 100 % of control and 112 % of control | T/C (dose: 512.0 mg/kg/injection, schedule: Q08DX002 (oral), vehicle: Klucel (hydroxypropylcellulose) (HPC)): 105 % of control | T/C (dose: 1024.0 mg/kg/injection, schedule: Q01DX001 (oral), vehicle: Klucel (hydroxypropylcellulose) (HPC)): 122 % of control | T/C (dose: 1024.0 mg/kg/injection, schedule: Q01DX001 (oral), vehicle: other): 150 % of control | T/C (dose: 1024.0 mg/kg/injection, schedule: Q01DX009 (oral), vehicle: other): 87 % of control and 100 % of control | T/C (dose: 1024.0 mg/kg/injection, schedule: Q08DX002 (oral), vehicle: Klucel (hydroxypropylcellulose) (HPC)): 111 % of control
